Measured values published in patent US8871934B2, “Fluorene compound and pharmaceutical use thereof” (Japan Tobacco Inc., priority 2008, dated 2014).
pIC50: −log10 of the molar value. Like-named read-outs stand apart in the source and are kept apart here.

Biological target: human PDHK2 (hPDHK2) (Homo sapiens (Human), UniProt Q15119)
Assay: Inhibitory action of PDHK activity in vitro (kinase reaction, residual PDH activity measured)
Format: biochemical
[1] = PDHK inhibitory activity, class symbol of IC50
[2] = read-out: PDHK inhibitory activity IC50

SMILES | pIC50 [1] | pIC50 [2]
O=C(O)COC1CN(C(=O)c2ccc3c(c2)C(O)(C(F)(F)F)c2ccccc2-3)C1 (stereo not shown) [compound 107] | < 6.00 | 5.58
O=C(c1ccc2c(c1)C(O)(C(F)(F)F)c1ccccc1-2)N1CC(OCCO)C1 (stereo not shown) [compound 108] | 6.00 to 7.00 | 6.34
O=C(c1ccc2c(c1)C(O)(C(F)(F)F)c1ccccc1-2)C1CCCC1 (stereo not shown) [compound 109] | < 6.00 | 5.88
CC(C)Oc1ccc2c(c1)C(O)(C(F)(F)F)c1ccccc1-2 (stereo not shown) [compound 110] | < 6.00 | 5.60
O=C(c1cccc2c1-c1ccccc1C2(O)C(F)(F)F)N1CC1 (stereo not shown) [compound 111] | < 6.00 | < 5.00
OC1(C(F)(F)F)c2ccccc2-c2ccc(-c3ccccn3)cc21 (stereo not shown) [compound 112] | < 6.00 | 5.91
OC1(C(F)(F)F)c2ccccc2-c2c(Br)cccc21 (stereo not shown) [compound 113] | < 6.00 | 5.95
O=C(c1cc(Br)c2c(c1)C(O)(C(F)(F)F)c1ccccc1-2)N1CCC1 (stereo not shown) [compound 114] | > 7.00 | 7.29
COC(=O)COC1CN(C(=O)c2ccc3c(c2)C(O)(C(F)(F)F)c2ccccc2-3)C1 (stereo not shown) [compound 115] | 6.00 to 7.00 | 6.38
NC(=O)COC1CN(C(=O)c2ccc3c(c2)C(O)(C(F)(F)F)c2ccccc2-3)C1 (stereo not shown) [compound 116] | 6.00 to 7.00 | 6.22
CNC(=O)COC1CN(C(=O)c2ccc3c(c2)C(O)(C(F)(F)F)c2ccccc2-3)C1 (stereo not shown) [compound 117] | 6.00 to 7.00 | 6.04
CN(C)C(=O)COC1CN(C(=O)c2ccc3c(c2)C(O)(C(F)(F)F)c2ccccc2-3)C1 (stereo not shown) [compound 118] | 6.00 to 7.00 | 6.08
O=C(c1ccc2c(c1)C(O)(C(F)(F)F)c1ccccc1-2)C1CCC1 (stereo not shown) [compound 119] | < 6.00 | 6.00
COC(=O)C1CN(C(=O)c2ccc3c(c2)C(O)(C(F)(F)F)c2ccccc2-3)C1 (stereo not shown) [compound 120] | 6.00 to 7.00 | 6.76
O=C(O)C1CN(C(=O)c2ccc3c(c2)C(O)(C(F)(F)F)c2ccccc2-3)C1 (stereo not shown) [compound 121] | < 6.00 | 5.43
CC(=O)c1cc(C(=O)N2CCC2)cc2c1-c1ccccc1C2(O)C(F)(F)F (stereo not shown) [compound 122] | > 7.00 | 7.31
NC(=O)C1CN(C(=O)c2ccc3c(c2)C(O)(C(F)(F)F)c2ccccc2-3)C1 (stereo not shown) [compound 123] | 6.00 to 7.00 | 6.06
CNC(=O)C1CN(C(=O)c2ccc3c(c2)C(O)(C(F)(F)F)c2ccccc2-3)C1 (stereo not shown) [compound 124] | 6.00 to 7.00 | 6.13
CN(C)C(=O)C1CN(C(=O)c2ccc3c(c2)C(O)(C(F)(F)F)c2ccccc2-3)C1 (stereo not shown) [compound 125] | 6.00 to 7.00 | 6.64
OC1(C(F)(F)F)c2ccccc2-c2c(-c3ccccc3)cccc21 (stereo not shown) [compound 126] | < 6.00 | < 5.00
O=C(c1ccc2c(c1)C(O)(C(F)(F)F)c1ccccc1-2)N1CCOCC1 (stereo not shown) [compound 127] | < 6.00 | < 5.00
OC1(C(F)(F)F)c2ccccc2-c2ccc(OC3CCC3)cc21 (stereo not shown) [compound 128] | < 6.00 | 5.62
OC1(C(F)(F)F)c2ccccc2-c2ccc(-c3cccc(F)c3)cc21 (stereo not shown) [compound 129] | 6.00 to 7.00 | 6.06
COC(=O)Nc1cccc2c1-c1ccccc1C2(O)C(F)(F)F (stereo not shown) [compound 130] | < 6.00 | < 5.00

SMILES | pIC50 [1] | pIC50 [2]
OC1(C(F)(F)F)c2ccccc2-c2c(-c3ncco3)cccc21 (stereo not shown) [compound 131] | < 6.00 | < 5.00
OC1(C(F)(F)F)c2ccccc2-c2ccc(-c3cccc(Cl)c3)cc21 (stereo not shown) [compound 132] | 6.00 to 7.00 | 6.16
CN(C)C1CN(C(=O)c2ccc3c(c2)C(O)(C(F)(F)F)c2ccccc2-3)C1 (stereo not shown) [compound 133] | < 6.00 | 5.60
OC1(C(F)(F)F)c2ccccc2-c2c(-c3ccccn3)cccc21 (stereo not shown) [compound 134] | < 6.00 | < 5.00
Cc1cccc(-c2ccc3c(c2)C(O)(C(F)(F)F)c2ccccc2-3)c1 (stereo not shown) [compound 137] | < 6.00 | 6.00
C=C(C)c1cccc2c1-c1ccccc1C2(O)C(F)(F)F (stereo not shown) [compound 138] | < 6.00 | < 5.00
OC1(C(F)(F)F)c2ccccc2-c2c(-c3ccncc3)cccc21 (stereo not shown) [compound 139] | < 6.00 | < 5.00
OC1(C(F)(F)F)c2ccccc2-c2c(-c3nnco3)cccc21 (stereo not shown) [compound 140] | < 6.00 | 5.62
N#Cc1cc(C(=O)N2CCC2)cc2c1-c1ccccc1C2(O)C(F)(F)F (stereo not shown) [compound 141] | > 7.00 | 7.11
Cc1noc(-c2cccc3c2-c2ccccc2C3(O)C(F)(F)F)n1 (stereo not shown) [compound 142] | 6.00 to 7.00 | 6.27
CS(=O)(=O)c1cccc2c1-c1ccccc1C2(O)C(F)(F)F (stereo not shown) [compound 143] | < 6.00 | < 5.00
OC1(C(F)(F)F)c2ccccc2-c2ccc(-c3cccs3)cc21 (stereo not shown) [compound 144] | < 6.00 | 5.95
OC1(C(F)(F)F)c2ccccc2-c2ccc(-c3ccsc3)cc21 (stereo not shown) [compound 145] | < 6.00 | 5.86
OC1(C(F)(F)F)c2ccccc2-c2c(-c3cccnc3)cccc21 (stereo not shown) [compound 146] | 6.00 to 7.00 | 6.67
O=C1CCCN1c1ccc2c(c1)C(O)(C(F)(F)F)c1ccccc1-2 (stereo not shown) [compound 147] | < 6.00 | 5.76
OC1(C(F)(F)F)c2ccccc2-c2ccc(N3CCCCC3)cc21 (stereo not shown) [compound 148] | < 6.00 | 5.07
OC1(C(F)(F)F)c2ccccc2-c2ccc(-c3ccccc3F)cc21 (stereo not shown) [compound 149] | < 6.00 | 5.91
OC1(C(F)(F)F)c2ccccc2-c2ccc(-c3ccccc3Cl)cc21 (stereo not shown) [compound 150] | < 6.00 | 5.17
Cc1ccccc1-c1ccc2c(c1)C(O)(C(F)(F)F)c1ccccc1-2 (stereo not shown) [compound 151] | < 6.00 | 5.28
COC(=O)c1cccc(-c2ccc3c(c2)C(O)(C(F)(F)F)c2ccccc2-3)c1 (stereo not shown) [compound 154] | 6.00 to 7.00 | 6.51
O=C(O)c1cccc(-c2ccc3c(c2)C(O)(C(F)(F)F)c2ccccc2-3)c1 (stereo not shown) [compound 155] | 6.00 to 7.00 | 6.09
NC(=O)c1cccc(-c2ccc3c(c2)C(O)(C(F)(F)F)c2ccccc2-3)c1 (stereo not shown) [compound 156] | 6.00 to 7.00 | 6.33
CNC(=O)c1cccc(-c2ccc3c(c2)C(O)(C(F)(F)F)c2ccccc2-3)c1 (stereo not shown) [compound 157] | 6.00 to 7.00 | 6.45
CN(C)C(=O)c1cccc(-c2ccc3c(c2)C(O)(C(F)(F)F)c2ccccc2-3)c1 (stereo not shown) [compound 158] | 6.00 to 7.00 | 6.66

SMILES | pIC50 [1] | pIC50 [2]
OC1(C(F)(F)F)c2ccccc2-c2c(Cl)cc(-c3ccccc3)cc21 (stereo not shown) [compound 159] | 6.00 to 7.00 | 6.50
OC1(C(F)(F)F)c2ccccc2-c2ccc(N3CCCC3)cc21 (stereo not shown) [compound 160] | < 6.00 | 5.60
OC1(C(F)(F)F)c2ccccc2-c2ccc(N3CCOCC3)cc21 (stereo not shown) [compound 161] | < 6.00 | 5.68
CN1CCN(c2ccc3c(c2)C(O)(C(F)(F)F)c2ccccc2-3)CC1 (stereo not shown) [compound 162] | < 6.00 | 5.54
CC(C)(C)OC(=O)N1CCN(c2ccc3c(c2)C(O)(C(F)(F)F)c2ccccc2-3)CC1 (stereo not shown) [compound 163] | 6.00 to 7.00 | 6.63
OC1(C(F)(F)F)c2ccccc2-c2ccc(N3CCNCC3)cc21 (stereo not shown) [compound 164] | < 6.00 | 5.56
CC(=O)N1CCN(c2ccc3c(c2)C(O)(C(F)(F)F)c2ccccc2-3)CC1 (stereo not shown) [compound 165] | 6.00 to 7.00 | 6.02
OC1(C(F)(F)F)c2ccccc2-c2ccc(Nc3ccccc3)cc21 (stereo not shown) [compound 166] | < 6.00 | 5.23
COC(=O)C1CCCN1C(=O)c1ccc2c(c1)C(O)(C(F)(F)F)c1ccccc1-2 (stereo not shown) [compound 167] | < 6.00 | 5.71
O=C(O)C1CCCN1C(=O)c1ccc2c(c1)C(O)(C(F)(F)F)c1ccccc1-2 (stereo not shown) [compound 168] | < 6.00 | < 5.00
OC1(C(F)(F)F)c2ccccc2-c2ccc(C3CCCCC3)cc21 (stereo not shown) [compound 169] | < 6.00 | 5.13
COc1ccccc1-c1ccc2c(c1)C(O)(C(F)(F)F)c1ccccc1-2 (stereo not shown) [compound 170] | < 6.00 | 5.17
OC1(C(F)(F)F)c2ccccc2-c2ccc(-c3ccc(F)cc3)cc21 (stereo not shown) [compound 171] | 6.00 to 7.00 | 6.02
COc1ccc(-c2ccc3c(c2)C(O)(C(F)(F)F)c2ccccc2-3)cc1 (stereo not shown) [compound 172] | 6.00 to 7.00 | 6.11
CCOC(=O)c1ccccc1-c1ccc2c(c1)C(O)(C(F)(F)F)c1ccccc1-2 (stereo not shown) [compound 173] | < 6.00 | < 5.00
NC(=O)c1cc(C(=O)N2CCC2)cc2c1-c1ccccc1C2(O)C(F)(F)F (stereo not shown) [compound 174] | > 7.00 | 7.18
CCOC(=O)c1ccc(-c2ccc3c(c2)C(O)(C(F)(F)F)c2ccccc2-3)cc1 (stereo not shown) [compound 175] | 6.00 to 7.00 | 6.29
NC(=O)C1CCCN1C(=O)c1ccc2c(c1)C(O)(C(F)(F)F)c1ccccc1-2 (stereo not shown) [compound 176] | < 6.00 | 5.10
CNC(=O)C1CCCN1C(=O)c1ccc2c(c1)C(O)(C(F)(F)F)c1ccccc1-2 (stereo not shown) [compound 177] | < 6.00 | 5.04
CN(C)C(=O)C1CCCN1C(=O)c1ccc2c(c1)C(O)(C(F)(F)F)c1ccccc1-2 (stereo not shown) [compound 178] | < 6.00 | < 5.00
OC1(C(F)(F)F)c2ccccc2-c2ccc(-c3ccc(Cl)cc3)cc21 (stereo not shown) [compound 179] | < 6.00 | 5.87
O=C(O)c1ccccc1-c1ccc2c(c1)C(O)(C(F)(F)F)c1ccccc1-2 (stereo not shown) [compound 180] | < 6.00 | < 5.00
Cc1ccc(-c2ccc3c(c2)C(O)(C(F)(F)F)c2ccccc2-3)cc1 (stereo not shown) [compound 181] | < 6.00 | 5.82
